# Measurements published in patent US11638427B2, “Methods and compositions for altering secondary metabolites in plants” (Impello Biosciences, Inc, priority 2020, dated 2023).
# Tests used:
# [1] = tested on: hemp varietal 'Bialobreszkie'; assay: MeJA foliar spray on fiber hemp, non-targeted metabolomic analysis (UPLC-MS, GC-MS); type: in vivo, Cannabis spp.
# Procedure: The efficacy and effectiveness of an eliciting composition and methods of use to alter secondary metabolite production were tested in a controlled environment with a commercial certified hemp varietal ‘Bialobreszkie’ (Bija Hemp, Denver, Colo., USA). […] This is in comparison with high metabolite-producing hemp varieties that typically yield greater than 10% by weight total cannabinoids.
# A non-targeted semi-quantitative metabolomic analysis was conducted to provide relative values for each detected analyte (i.e., compound) rather than absolute quantification, but with much greater detection limits than typical quantitative analysis provides. Additionally, the non-targeted nature allows essentially every compound that is present in the sample to be recorded and scored relative, providing a picture of the effect that each treatment has on the entire metabolome of the plant rather than only a snapshot of a few metabolites.
# One hundred and forty-four (144) ‘Bialobreszkie’ variety hemp seeds were surface sterilized in a 2% NaOCI solution for 5 minutes and primed for 12 hours in a 1:30 aqueous solution of TRIBUS® Original (a commercial plant growth promoting bacterial consortia) contained in a 50 mL centrifuge tube and placed on an orbital shaker at 80 rpm, then hand sewn into two 72-cell trays filled with commercial coco coir (Canna Gardening, NL). Of the 144 seeds, 112 germinated well and were selected for use in the trial. After two weeks of development in seedling trays, all 112 plants were transplanted into 4” square plastic pots filled with pure coco coir media and watered-in with a 4-20-39 fertilizer supplemented with calcium nitrate, magnesium sulfate, and TRIBUS® beneficial bacteria at a standardized rate. At the time of transplant, all plants were transitioned into the flowering stage by manipulating the photoperiod to a 12-hour light/12-hour dark schedule per 24-hour day.
# Plants were transplanted successively without regard to their size or physical attributes on Apr. 20, 2019. The square pots were arranged in an […] grid on a 4′×8′ black plastic bench under two×1000-watt DE-HPS lamps (Gavita International BV). Each pot was numbered in numerical order, row by row. After all plants/pots were labelled, a research randomizer tool (randomizer.org) was used to randomly generate 8 groups with 14 unique numbers in each group, ranging from 1-112.
# Treatment groups differed only in the frequency and timing of applications. Chemical composition of the elicitor formula remained identical between all treatment groups and consisted of a 7.5 mM methyljasmonate (MeJA, technical grade, TCI America) active ingredient applied in an aqueous spray consisting of reverse-osmosis purified water, supplemented only with 0.1% v/v polysorbate-20 (TWEEN®-20, reagent grade, VWR) as an emulsifier to support oil-in-water stability. […] Treatment groups were defined as follows: […]
# All plants receiving treatments were sprayed-to-drip with each application to ensure sufficient coverage. Treatments were made to all treatment plants during daylight hours but out of direct light. Plants were temporarily removed from the growing bench for treatment applications in order to prevent overspray of the treatment onto other plants in the experiment. In such instances, plants were returned to the growing bench immediately after the foliage had dried. Plants were cultivated under identical and typical growing conditions for 47 days, then whole plants were harvested successively and within one hour of each other, labeled with their corresponding plant number, and hung upside down in a well-ventilated room and allowed to dry. Loss of samples occurred either from plants dying during the experiment or insufficient flower set. All other plants in the experiment were approximately the same size and had similar numbers and size of flowers.
# Each of the 8 groups (7 treatment and 1 control) began the trial with 14 plants. 109 of 112 samples were run in the assay. […]
# [2] = tested on: oyster mushroom; assay: Fungal plug growth on jasmonate-infused PDA plates; type: cell-based; conditions: all concentrations (1 mM, 4.25 mM, 10 mM) in PDA; 72 hours and 10 days
# Procedure: (§1) MDJ (TCI, CAS No.: 24851-98-7) and CJ were infused into potato dextrose agar (PDA, VWR Cat No.: 90003-494) petri dishes (100×15 mm VWR, Cat No: 25384-094) at concentrations ranging from 1 mM, 4.25 mM, and 10 mM. Each treatment was prepared using a technical grade stock solution of pure chemical (CJ or MDJ) diluted with TWEEN®-20 (VWR, CAS No.: […]). Culturable oyster mushroom and seedling mold served to create fungal mycelial plugs using a sterile 1 mL pipette tip (Eppendorf, Cat No.: 022491458) held upside down. The tips were used to make circle excisions (i.e., fungal plugs) from a mycelial mat grown on PDA with no biochemical infusions. Fungal pugs were then transferred to PDA infused with varying concentrations of CJ or MDJ, and control plates (no CJ or MDJ infusion) to monitor fungal growth at room temperature over time.
# [3] = tested on: Colletotrichum gloeosporioides; assay: Mold growth on jasmonate-infused plates, mold 1 isolated from avocado; type: cell-based; conditions: various concentrations in plates
# Procedure: as §1
# Based on the above results in Cannabis spp., additional fungi from various crops was sampled and tested. Plates comprising various concentrations of MDJ or MJ were prepared as described above.
# [4] = tested on: hemp plants Cv. Zephyr; assay: Weekly MDJ foliar spray at four concentrations, cannabinoids and terpenes; type: in vivo, Cannabis spp.
# Procedure: To investigate the effect of different concentrations of MDJ, four different concentrations of MDJ was applied to hemp plants (n=5 per treatment, Cv.: Zephyr, CBDRx) weekly via foliar spray at the following concentrations: 1 mM, 4.25 mM, 7.5 mM, 10 mM. Treatment concentrations were prepared as described above and one drop of TWEEN®-20 (VWR, CAS No.: 9005-64-5) was added to treatments to serve as a surfactant. Treatments were applied weekly during both the vegetative (2 treatments) and flowering (6 treatments) developmental stages using a SPRAYMASTER Chemical Sprayer (King of Prussia, Pa.) (8 treatments total). Plants were grown under a total of 12 Boost (Thrive Agritech, NY) 130-watt LED lights set to 18L: 6D photoperiod during the vegetative phase (2 weeks) followed by a 12L: 12D photoperiod during the flowering phase (6 weeks), using the same lighting. Untreated controls served as a comparison to see alterations in metabolite synthesis.
# [5] = 7.5 mM foliar spray, of the 597
# [6] = all tested concentrations (1, 4.25, 7.5, 10 mM) weekly foliar spray vs untreated controls
compound,measurement,setting,value
"CC/C=C\C[C@H]1C(=O)CC[C@@H]1CC(=O)OC [MeJA, Methyl Jasmonate]",non-volatile hemp metabolome compared to the Control group (UPLC-MS),"[1]; 7.5 mM applied every 7, 14 or 28 days, or only once 72 hours prior to harvest",substantially altered
same,endogenous levels of jasmonate derivatives,[1]; 7.5 mM exogenous foliar application,increase endogenous levels of numerous jasmonate derivaties
same,significantly altered compounds not annotated,[1]; [5],466
same,significantly altered compounds putatively of superclass Alkaloids and derivatives,[1]; [5],5
same,significantly altered compounds putatively of superclass Benzenoids,[1]; [5],5
same,significantly altered compounds putatively of superclass Lipid or Lipid like,[1]; [5],78
same,significantly altered compounds putatively of superclass Organic acids and derivatives,[1]; [5],1
same,significantly altered compounds putatively of superclass Organic nitrogen compounds,[1]; [5],1
same,significantly altered compounds putatively of superclass Organic oxygen compounds,[1]; [5],9
same,significantly altered compounds putatively of superclass Organoheterocyclic compounds,[1]; [5],10
same,significantly altered compounds putatively of superclass Phenylpropanoids and polyketides,[1]; [5],14
same,non-volatile compounds significantly (p<0.05) altered by one or more treatment groups,"[1]; 7.5 mM foliar spray, of the 2,000+ compounds detected via UPLC-TOF",597
same,analytes with significantly altered relative abundance compared to the control group,"[1]; Treatment 1: 7.5 mM, one application every 7 days from first day of flowering",551
same,analytes with significantly altered relative abundance compared to the control group,"[1]; Treatment 2: 7.5 mM, one application every 14 days from first day of flowering",497
same,analytes with significantly altered relative abundance compared to the control group,"[1]; Treatment 3: 7.5 mM, one application every 28 days from first day of flowering",41
same,analytes with significantly altered relative abundance compared to the control group,"[1]; Treatment 4: 7.5 mM, only one application on the first day of flowering",did not significantly altered the relative abundance of any analytes
same,analytes with significantly altered relative abundance compared to the control group,"[1]; Treatment 5: 7.5 mM, only one application on the 30th day of flowering",4
same,analytes with significantly altered relative abundance compared to the control group,"[1]; Treatment 6: 7.5 mM, only one application 72 hours prior to harvest",399
same,analytes with significantly altered relative abundance compared to the control group,"[1]; Treatment 7: 7.5 mM, only one application 24 hours prior to harvest",216
"CCCCCC1C(=O)CCC1CC(=O)OC (centres unmarked) [MDJ, methyl dihydrojasmonate]",Oyster mushroom fungal growth compared to control,[2],showed inhibition
same,growth of mold isolated from avocado (mold 1),[3],effective at preventing the growth
same,CBDA,[4]; [6],significantly increased
same,CBGA,[4]; [6],significantly increased
same,THCA,[4]; [6],significantly increased
same,Total CBD,[4]; [6],significantly increased
same,Total CBG,[4]; [6],significantly increased
same,Total cannabinoids,[4]; [6],significantly increased
same,several terpenes,[4]; weekly foliar spray 1-10 mM,altered
same,CBL,"[4]; weekly foliar spray, CBL not detected at all in the control samples",detectable levels
